Assay results reported in PubChem BioAssay (NCI).
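Compound exposure: 48 hours, 5 concentrations, 96-well plates. The concentration for full growth arrest is given as TGI.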

Assays:
Assay in all cases: growth of human tumour cells (NCI), 48 h
786-0 renal = tested on: 786-0 renal
A498 renal = tested on: A498 renal
A549 NSCLC = tested on: A549 NSCLC
ACHN renal = tested on: ACHN renal
BT-549 breast = tested on: BT-549 breast
CAKI-1 renal = tested on: CAKI-1 renal
CCRF-CEM leukemia = tested on: CCRF-CEM leukemia
COLO 205 colon = tested on: COLO 205 colon
DU-145 prostate = tested on: DU-145 prostate
EKVX NSCLC = tested on: EKVX NSCLC
HCC-2998 colon = tested on: HCC-2998 colon
HCT-116 colon = tested on: HCT-116 colon
HCT-15 colon = tested on: HCT-15 colon
HL-60(TB) leukemia = tested on: HL-60(TB) leukemia
HOP-62 NSCLC = tested on: HOP-62 NSCLC
HOP-92 NSCLC = tested on: HOP-92 NSCLC
HS 578T breast = tested on: HS 578T breast
HT29 colon = tested on: HT29 colon
IGROV1 ovarian = tested on: IGROV1 ovarian
K-562 leukemia = tested on: K-562 leukemia
KM12 colon = tested on: KM12 colon
LOX IMVI melanoma = tested on: LOX IMVI melanoma
M14 melanoma = tested on: M14 melanoma
MALME-3M melanoma = tested on: MALME-3M melanoma
MCF7 breast = tested on: MCF7 breast
MDA-MB-231 breast = tested on: MDA-MB-231 breast
MDA-MB-435 = tested on: MDA-MB-435
MDA-N = tested on: MDA-N
MOLT-4 leukemia = tested on: MOLT-4 leukemia
NCI-H23 lung = tested on: NCI-H23 lung
NCI-H460 lung = tested on: NCI-H460 lung
NCI-H522 lung = tested on: NCI-H522 lung
NCI/ADR-RES ovarian = tested on: NCI/ADR-RES ovarian
OVCAR-3 ovarian = tested on: OVCAR-3 ovarian
OVCAR-5 ovarian = tested on: OVCAR-5 ovarian
OVCAR-8 ovarian = tested on: OVCAR-8 ovarian
PC-3 prostate = tested on: PC-3 prostate
RPMI-8226 leukemia = tested on: RPMI-8226 leukemia
RXF 393 renal = tested on: RXF 393 renal
SF-268 CNS = tested on: SF-268 CNS
SF-295 CNS = tested on: SF-295 CNS
SF-539 CNS = tested on: SF-539 CNS
SK-MEL-2 melanoma = tested on: SK-MEL-2 melanoma
SK-MEL-28 melanoma = tested on: SK-MEL-28 melanoma
SK-MEL-5 melanoma = tested on: SK-MEL-5 melanoma
SK-OV-3 ovarian = tested on: SK-OV-3 ovarian
SN12C renal = tested on: SN12C renal
SNB-19 CNS = tested on: SNB-19 CNS
SNB-75 CNS = tested on: SNB-75 CNS
SR leukemia = tested on: SR leukemia
SW-620 colon = tested on: SW-620 colon
TK-10 renal = tested on: TK-10 renal
U251 CNS = tested on: U251 CNS
UACC-257 melanoma = tested on: UACC-257 melanoma
UACC-62 melanoma = tested on: UACC-62 melanoma
UO-31 renal = tested on: UO-31 renal
NCI-H226 lung = tested on: NCI-H226 lung
OVCAR-4 ovarian = tested on: OVCAR-4 ovarian
T-47D breast = tested on: T-47D breast

O=[N+]([O-])c1ccc2sc(C=Nc3ccc(O)cc3)cc2c1
TGI (786-0 renal): 40.4 µM
TGI (A498 renal): > 100 µM
TGI (A549 NSCLC): > 100 µM
TGI (ACHN renal): > 100 µM
TGI (BT-549 breast): > 100 µM
TGI (CAKI-1 renal): 43.5 µM
TGI (CCRF-CEM leukemia): 59.6 µM
TGI (COLO 205 colon): > 100 µM
TGI (DU-145 prostate): > 100 µM
TGI (EKVX NSCLC): > 100 µM
TGI (HCC-2998 colon): 56.6 µM
TGI (HCT-116 colon): > 100 µM
TGI (HCT-15 colon): > 100 µM
TGI (HL-60(TB) leukemia): 53.2 µM
TGI (HOP-62 NSCLC): > 100 µM
TGI (HOP-92 NSCLC): > 100 µM
TGI (HS 578T breast): 66.4 µM
TGI (HT29 colon): > 100 µM
TGI (IGROV1 ovarian): > 100 µM
TGI (K-562 leukemia): 43 µM
TGI (KM12 colon): > 100 µM
TGI (LOX IMVI melanoma): 51.2 µM
TGI (M14 melanoma): > 100 µM
TGI (MALME-3M melanoma): > 100 µM
TGI (MCF7 breast): 47.7 µM
TGI (MDA-MB-231 breast): 44.5 µM
TGI (MDA-MB-435): 34.3 µM
TGI (MDA-N): 80.6 µM
TGI (MOLT-4 leukemia): 44.6 µM
TGI (NCI-H23 lung): > 100 µM
TGI (NCI-H460 lung): > 100 µM
TGI (NCI-H522 lung): > 100 µM
TGI (NCI/ADR-RES ovarian): > 100 µM
TGI (OVCAR-3 ovarian): 28.6 µM
TGI (OVCAR-5 ovarian): > 100 µM
TGI (OVCAR-8 ovarian): > 100 µM
TGI (PC-3 prostate): > 100 µM
TGI (RPMI-8226 leukemia): 79.7 µM
TGI (RXF 393 renal): 57.9 µM
TGI (SF-268 CNS): > 100 µM
TGI (SF-295 CNS): > 100 µM
TGI (SF-539 CNS): 55.4 µM
TGI (SK-MEL-2 melanoma): 59 µM
TGI (SK-MEL-28 melanoma): > 100 µM
TGI (SK-MEL-5 melanoma): 68 µM
TGI (SK-OV-3 ovarian): > 100 µM
TGI (SN12C renal): > 100 µM
TGI (SNB-19 CNS): > 100 µM
TGI (SNB-75 CNS): 49.9 µM
TGI (SR leukemia): 97 µM
TGI (SW-620 colon): 43.9 µM
TGI (TK-10 renal): > 100 µM
TGI (U251 CNS): 42.7 µM
TGI (UACC-257 melanoma): 56.2 µM
TGI (UACC-62 melanoma): 61.9 µM
TGI (UO-31 renal): > 100 µM

OC1c2[nH]c3ccccc3c2CCN2CCCCC12 (configuration not stated)
TGI (786-0 renal): > 100 µM
TGI (A498 renal): > 100 µM
TGI (A549 NSCLC): > 100 µM
TGI (ACHN renal): > 100 µM
TGI (BT-549 breast): > 100 µM
TGI (CAKI-1 renal): > 100 µM
TGI (CCRF-CEM leukemia): > 100 µM
TGI (COLO 205 colon): > 100 µM
TGI (DU-145 prostate): > 100 µM
TGI (EKVX NSCLC): > 100 µM
TGI (HCC-2998 colon): > 100 µM
TGI (HCT-116 colon): > 100 µM
TGI (HCT-15 colon): > 100 µM
TGI (HL-60(TB) leukemia): > 100 µM
TGI (HOP-62 NSCLC): > 100 µM
TGI (HOP-92 NSCLC): > 100 µM
TGI (HT29 colon): > 100 µM
TGI (IGROV1 ovarian): > 100 µM
TGI (K-562 leukemia): > 100 µM
TGI (KM12 colon): > 100 µM
TGI (LOX IMVI melanoma): > 100 µM
TGI (M14 melanoma): > 100 µM
TGI (MALME-3M melanoma): > 100 µM
TGI (MCF7 breast): > 100 µM
TGI (MDA-MB-231 breast): > 100 µM
TGI (MDA-MB-435): > 100 µM
TGI (MDA-N): > 100 µM
TGI (MOLT-4 leukemia): > 100 µM
TGI (NCI-H226 lung): > 100 µM
TGI (NCI-H23 lung): > 100 µM
TGI (NCI-H460 lung): > 100 µM
TGI (NCI-H522 lung): > 100 µM
TGI (NCI/ADR-RES ovarian): > 100 µM
TGI (OVCAR-3 ovarian): > 100 µM
TGI (OVCAR-4 ovarian): > 100 µM
TGI (OVCAR-5 ovarian): > 100 µM
TGI (OVCAR-8 ovarian): > 100 µM
TGI (PC-3 prostate): > 100 µM
TGI (RPMI-8226 leukemia): > 100 µM
TGI (RXF 393 renal): > 100 µM
TGI (SF-268 CNS): > 100 µM
TGI (SF-295 CNS): > 100 µM
TGI (SF-539 CNS): > 100 µM
TGI (SK-MEL-2 melanoma): > 100 µM
TGI (SK-MEL-28 melanoma): > 100 µM
TGI (SK-OV-3 ovarian): > 100 µM
TGI (SN12C renal): > 100 µM
TGI (SNB-19 CNS): > 100 µM
TGI (SNB-75 CNS): > 100 µM
TGI (SR leukemia): > 100 µM
TGI (SW-620 colon): > 100 µM
TGI (T-47D breast): > 100 µM
TGI (TK-10 renal): > 100 µM
TGI (U251 CNS): > 100 µM
TGI (UACC-257 melanoma): > 100 µM
TGI (UACC-62 melanoma): > 100 µM
